# Experimental data taken from article PMC10866072, “Design, synthesis, molecular modelling and biological evaluation of novel 6-amino-5-cyano-2-thiopyrimidine derivatives as potent anticancer agents against leukemia and apoptotic inducers” (Journal of Enzyme Inhibition and Medicinal Chemistry, 2024).
# How the values were obtained:
# [1] = test system: CCRF-CEM; type: cell-based; conditions: Homo sapiens, one dose 10^-5 M, 48 h
# [2] = test system: HL-60(TB); type: cell-based; conditions: Homo sapiens, one dose 10^-5 M, 48 h
# [3] = test system: K-562; type: cell-based; conditions: Homo sapiens, K562, one dose 10^-5 M, 48 h
# [4] = test system: MOLT-4; type: cell-based; conditions: Homo sapiens, one dose 10^-5 M, 48 h, read-out: % growth
# [5] = test system: RPMI-8226; type: cell-based; conditions: Homo sapiens, one dose 10^-5 M, 48 h
# [6] = test system: SR; type: cell-based; conditions: Homo sapiens, one dose 10^-5 M, 48 h
# [7] = test system: A549/ATCC; type: cell-based; conditions: Homo sapiens, one dose 10^-5 M, 48 h
# [8] = test system: EKVX; type: cell-based; conditions: Homo sapiens, one dose 10^-5 M, 48 h
# [9] = test system: HOP-62; type: cell-based; conditions: Homo sapiens, one dose 10^-5 M, 48 h
# [10] = test system: HOP-92; type: cell-based; conditions: Homo sapiens, one dose 10^-5 M, 48 h
# [11] = test system: NCI-H226; type: cell-based; conditions: Homo sapiens, one dose 10^-5 M, 48 h
# [12] = test system: NCI-H23; type: cell-based; conditions: Homo sapiens, one dose 10^-5 M, 48 h, read-out: % growth
# [13] = test system: NCI-H460; type: cell-based; conditions: Homo sapiens, one dose 10^-5 M, 48 h, read-out: % growth
# [14] = test system: NCI-H522; type: cell-based; conditions: Homo sapiens, one dose 10^-5 M, 48 h
# [15] = test system: HCC-2998; type: cell-based; conditions: Homo sapiens, one dose 10^-5 M, 48 h
# [16] = test system: HCT-116; type: cell-based; conditions: Homo sapiens, one dose 10^-5 M, 48 h, read-out: % growth
# [17] = test system: HCT-15; type: cell-based; conditions: Homo sapiens, one dose 10^-5 M, 48 h, read-out: % growth
# [18] = test system: HT29; type: cell-based; conditions: Homo sapiens, HT-29, one dose 10^-5 M, 48 h
# [19] = test system: KM12; type: cell-based; conditions: Homo sapiens, one dose 10^-5 M, 48 h
# [20] = test system: SW-620; type: cell-based; conditions: Homo sapiens, one dose 10^-5 M, 48 h
# [21] = test system: SF-268; type: cell-based; conditions: Homo sapiens, one dose 10^-5 M, 48 h, read-out: % growth
# [22] = test system: SF-295; type: cell-based; conditions: Homo sapiens, one dose 10^-5 M, 48 h
# [23] = test system: SF-539; type: cell-based; conditions: Homo sapiens, one dose 10^-5 M, 48 h
# [24] = test system: SNB-19; type: cell-based; conditions: Homo sapiens, one dose 10^-5 M, 48 h, read-out: % growth
# [25] = test system: SNB-75; type: cell-based; conditions: Homo sapiens, one dose 10^-5 M, 48 h
# [26] = test system: U251; type: cell-based; conditions: Homo sapiens, U-251, one dose 10^-5 M, 48 h
# [27] = test system: LOX IMVI; type: cell-based; conditions: Homo sapiens, one dose 10^-5 M, 48 h, read-out: % growth
# [28] = test system: MALME-3M; type: cell-based; conditions: Homo sapiens, one dose 10^-5 M, 48 h
# [29] = test system: M14; type: cell-based; conditions: Homo sapiens, one dose 10^-5 M, 48 h
# [30] = test system: MDA-MB-435; type: cell-based; conditions: Homo sapiens, one dose 10^-5 M, 48 h, read-out: % growth
# [31] = test system: SK-MEL-2; type: cell-based; conditions: Homo sapiens, one dose 10^-5 M, 48 h
# [32] = test system: SK-MEL-28; type: cell-based; conditions: Homo sapiens, one dose 10^-5 M, 48 h
# [33] = test system: SK-MEL-5; type: cell-based; conditions: Homo sapiens, one dose 10^-5 M, 48 h, read-out: % growth
# [34] = test system: UACC-257; type: cell-based; conditions: Homo sapiens, one dose 10^-5 M, 48 h
# [35] = test system: UACC-62; type: cell-based; conditions: Homo sapiens, one dose 10^-5 M, 48 h
# [36] = test system: IGROV1; type: cell-based; conditions: Homo sapiens, IGROV-1, one dose 10^-5 M, 48 h, read-out: % growth
# [37] = test system: OVCAR-3; type: cell-based; conditions: Homo sapiens, one dose 10^-5 M, 48 h
# [38] = test system: OVCAR-4; type: cell-based; conditions: Homo sapiens, one dose 10^-5 M, 48 h
# [39] = test system: OVCAR-5; type: cell-based; conditions: Homo sapiens, one dose 10^-5 M, 48 h
# [40] = test system: OVCAR-8; type: cell-based; conditions: Homo sapiens, one dose 10^-5 M, 48 h
# [41] = test system: SK-OV-3; type: cell-based; conditions: Homo sapiens, one dose 10^-5 M, 48 h
# [42] = test system: 786-0; type: cell-based; conditions: Homo sapiens, one dose 10^-5 M, 48 h
# [43] = test system: A498; type: cell-based; conditions: Homo sapiens, one dose 10^-5 M, 48 h
# [44] = test system: ACHN; type: cell-based; conditions: Homo sapiens, one dose 10^-5 M, 48 h
# [45] = test system: CAKI-1; type: cell-based; conditions: Homo sapiens, CAKI-1, 48 h, one dose 10^-5 M, 48 h
# [46] = test system: RXF 393; type: cell-based; conditions: Homo sapiens, RXF 393, 48 h, one dose 10^-5 M, 48 h, read-out: % growth
# [47] = test system: SN12C; type: cell-based, human; conditions: Homo sapiens, one dose 10^-5 M, 48 h
# [48] = test system: TK-10; type: cell-based; conditions: Homo sapiens, one dose 10^-5 M, 48 h
# [49] = test system: UO-31; type: cell-based; conditions: Homo sapiens, UO-31, 48 h, one dose 10^-5 M, 48 h
# [50] = test system: PC-3; type: cell-based; conditions: Homo sapiens, one dose 10^-5 M, 48 h
# [51] = test system: DU-145; type: cell-based; conditions: Homo sapiens, one dose 10^-5 M, 48 h
# [52] = test system: MCF7; type: cell-based; conditions: Homo sapiens, one dose 10^-5 M, 48 h, read-out: % growth
# [53] = test system: MDA-MB-231/ATCC; type: cell-based; conditions: one dose 10^-5 M, 48 h
# [54] = test system: HS 578T; type: cell-based; conditions: Homo sapiens; one dose 10^-5 M, 48 h; HS 578T; read-out: % growth
# [55] = test system: T-47D; type: cell-based; conditions: Homo sapiens, T47D, one dose 10^-5 M, 48 h, read-out: % growth
# [56] = test system: MDA-MB-468; type: cell-based; conditions: Homo sapiens, one dose 10^-5 M, 48 h
# [57] = test system: full NCI 60 cell lines panel; conditions: Homo sapiens, 60 cell, 48 h, read-out: Mean % growth
structure (smiles),measurement,setting,value
"N=C(NN=Cc1ccc(Br)cc1)c1c(N)nc(S)nc1-c1ccc(Cl)cc1 [Compound 4k, 4-amino-N'-[(4-bromophenyl)methylene]-6–(4-chlorophenyl)-2-mercapto pyrimidine-5-carboximidohydrazide]",% cell growth at 10 µM,[1],43.4%
same,% growth at 10 µM,[2],119%
same,% growth at 10 µM,[3],67.8%
same,activity at 10 µM,[4],54.6%
same,% growth at 10 µM,[5],56.8%
same,percent cell growth at 10 µM,[6],62.4%
same,% growth at 10 µM,[7],55.3%
same,% cell growth at 10 µM,[8],66.3%
same,% growth at 10 µM,[9],98%
same,% growth at 10 µM,[10],19%
same,% growth at 10 µM,[11],98%
same,activity at 10 µM,[12],71.8%
same,activity at 10 µM,[13],73.4%
same,% growth at 10 µM,[14],73.5%
same,% growth at 10 µM,[15],111%
same,activity at 10 µM,[16],69.6%
same,activity at 10 µM,[17],73.4%
same,% growth at 10 µM,[18],102%
same,% growth at 10 µM,[19],76.2%
same,% growth at 10 µM,[20],95.6%
same,activity at 10 µM,[21],90.2%
same,% cell growth at 10 µM,[22],91.2%
same,% growth at 10 µM,[23],71.2%
same,activity at 10 µM,[24],80.4%
same,% growth at 10 µM,[25],35.5%
same,% growth at 10 µM,[26],77.1%
same,activity at 10 µM,[27],92.3%
same,% growth at 10 µM,[28],119%
same,% growth at 10 µM,[29],76.5%
same,activity at 10 µM,[30],87.8%
same,% growth at 10 µM,[31],96%
same,% cell growth at 10 µM,[32],105%
same,activity at 10 µM,[33],93.3%
same,percent cell growth at 10 µM,[34],81.4%
same,% growth at 10 µM,[35],82.4%
same,activity at 10 µM,[36],68.2%
same,% growth at 10 µM,[37],101%
same,% growth at 10 µM,[38],76.7%
same,percent cell growth at 10 µM,[39],97%
same,% growth of cells at 10 µM,[40],63.7%
same,% growth at 10 µM,[41],78.7%
same,% growth at 10 µM,[42],89.9%
same,% growth at 10 µM,[43],88.4%
same,% growth at 10 µM,[44],77.3%
same,% growth at 10 µM,[45],62.4%
same,activity at 10 µM,[46],82.5%
same,% growth at 10 µM,[47],87.7%
same,% cell growth at 10 µM,[48],116%
same,% cell growth at 10 µM,[49],47.8%
same,percent cell growth at 10 µM,[50],70.5%
same,% growth at 10 µM,[51],83.9%
same,activity at 10 µM,[52],57.5%
same,% growth at 10 µM,[53]; Homo sapiens,-1.21%
same,% growth,[53],-1.21%
same,activity at 10 µM,[54],42.6%
same,activity at 10 µM,[55],54.8%
same,percent cell growth at 10 µM,[56],84.6%
same,activity at 10 µM,[57],76.8%
